Here are results for 10 compounds from patent US6727382B1, “Peroxyacids” (Unilever Patent Holdings, B.V., priority 1992, dated 2004).

A short description of assay [1]: Bleaching of tea stained test cloths with peroxyacid formed in situ with SDS or Coco-PAS (Example VIII). The conditions noted are these: EDTA 2×10^−5 M, pH 10; for ΔR460* Coco-PAS: peracid 1×10^−3 mol with Coco-PAS 2×10^−3 mol in 100 ml demineralised water; for ΔR460* SDS: peracid 1×10^−3 mol with SDS 2×10^−3 mol in 100 ml demineralised water. The procedure:
(§1) Bleaching experiments were carried out in a temperature controlled glass vessel, equipped with a magnetic stirrer, thermocouple and a pH electrode, at a constant temperature of 40° C. pH was adjusted using 0.1M NaOH.
(§2) Peracid prepared according to example I was exchanged with SDS and 1×10^−3 mol added to 100 ml demineralised water and ethylene diamine tetraacteic acid (EDTA) (2×10^−5 M) in the glass vessel. Thereafter, tea stained test cloths were immersed in the solution for 30 minutes. The liquor to cloth ratio was greater than 20:1. After rinsing with tap water, the cloths were dried in a tumble drier.
(§3) Bleaching performance was determined using a Instrumental Colour Systems Micro-match to measure the reflectance, at 460 nm, of the cloths both before and after treatment. The difference (ΔR460*) in the values gives a measure of the effectiveness of the treatment.
Example VI was repeated using materials prepared according to examples I-VI and the comparative example. Peracid (1×10^−3 mol) was added to a glass vessel containing 100 ml demineralised water, EDTA, (2×10^−5 M), and SDS or Coco-PAS (2×10^−3 mol), i.e cationic peroxyacids according to the invention were formed in-situ. The pH was adjusted to pH 10 using 0.1NaOH. The difference (ΔR460*) in the values gives a measure of the effectiveness of the bleaching performance.

A short description of assay [2]: Bleaching of tea stained test cloths, reflectance at 460 nm (Example VII). The note with it: 40° C., 30 minutes, 1×10^−3 mol peracid in 100 ml demineralised water, EDTA 2×10^−5 M. The procedure: as §1, §2, §3

For “α-Octyl-dimethylammonium-4-peroxytoluic Acid Tosylate [Comparison]”, in assay [1], the “ΔR460* Coco-PAS” value amounted to 7.6 and the “ΔR460* SDS” value was 8.0.
As for “α-Pentyl-dimethylammonium-4-peroxytoluic Acid Tosylate [Example VI]”, in assay [1], the “ΔR460* Coco-PAS” value is listed as 18.6 and the “ΔR460* SDS” value came out at 21.9.
On to `C[N+](C)(C)CCOC(=O)Oc1ccc(S(=O)(=O)[O-])cc1` [CSPC, 2-(N,N,N-trimethylammonium)ethyl-4-sulphonyl carbonate], for which the “ΔR460* bleaching performance” value worked out at 20.0 in assay [2] (pH 7.0), 22.0 in assay [2] (pH 8.0) and 20.0 in assay [2] (pH 9.0).
With “αHexyl-dimethylammonium-4-peroxytoluic Acid Tosylate [Example III]”, in assay [1], the “ΔR460* Coco-PAS” value was 16.1 and the “ΔR460* SDS” value was 23.5.
On the same counts, the results for “α-Butyl-dimethylammonium-4-peroxytoluic Acid Tosylate [Example V]” are 21.8 and 23.7.
Consider `CCCCCCCCC(=O)Oc1ccc(S(=O)(=O)[O-])cc1.[Na+]` [SNOBS, Sodium nonoyloxybenzene sulphonate], for which the “ΔR460* bleaching performance” value in assay [2] (pH 9.0) is 7.5; in assay [2] (pH 10.0), 5.0.
On to `CS(=O)(=O)[O-].C[N+](C)(C)Cc1ccc(C(=O)OO)cc1` [Example I, α-Trimethylammonium-4-peroxytoluic Acid Methane Sulphonate], for which, in assay [1], the “ΔR460* Coco-PAS” value was determined as 26.7 and the “ΔR460* SDS” value is reported as 24.0.
As for `C[N+](C)(Cc1ccccc1)Cc1ccc(C(=O)OO)cc1.Cc1ccc(S(=O)(=O)[O-])cc1` [Example II, α-Benzyl-dimethylammonium-4-peroxytoluic Acid Tosylate], in assay [1], the “ΔR460* Coco-PAS” value was determined as 18.9 and the “ΔR460* SDS” value was found to be 21.9.
“α-Heptyl-Dimethylammonium-4-Peroxytoluic Acid Tosylate [Example IV]”: in assay [1], the “ΔR460* SDS” value is recorded as 14.5.
`O=C(CCCCCN1C(=O)c2ccccc2C1=O)OO` [PAP]: the “ΔR460* bleaching performance” value in assay [2] (pH 7.0) stood at 13.0; in assay [2] (pH 8.0) it was 13.0; in assay [2] (pH 9.0), 6.0; in assay [2] (pH 10.0), 4.0.
